# Entries after “also recorded” stand apart in the source; their conditions may differ.
# What was measured:
# Balb/C mice [1] = assay: ELISA for subclass (IgG1/IgG2a) of HBsAg specific antibody; assay type: in vivo; settings: Example 6; HBsAg specific antibody in serum; FIG. 15
# Balb/C mice [2] = assay: IFN-g ELISPOT of spleen cells after HBsAg DNA vaccine immunization; settings: Example 2; prime and boost; FIG. 4
# Balb/C mice [3] = assay: Anti-sAg and anti-cAg antibody ELISAs after PMID with HBV sAg/cAg plasmid; assay type: in vivo; settings: Example 7; either HBV antigen (sAg, cAg); data not shown
# Balb/C mice [4] = settings: Example 2; prime and boost, HBsAg plasmid with HCMV promoter; FIG. 3
# Balb/C mice [5] = assay: CD8 IFN-g ELISA of spleen cells after HBsAg DNA vaccine immunization; settings: Example 2; prime and boost; FIG. 4
# Balb/C mice [6] = assay: g-IFN ELISPOT after PMID with HBV sAg/cAg plasmid; assay type: in vivo
# Balb/C mice [7] = assay: IL-4 ELISPOT after PMID with HBV sAg/cAg plasmid; assay type: in vivo
# [8] = Example 7, summary of both experiments
Compound,ratio of IgG1/IgG2a (Balb/C mice [1]),"cellular response, ELISPOTs (Balb/C mice [2])",antibody titers (Balb/C mice [3]),Antibody levels (Balb/C mice [4]),"cellular response, IFN-g ELISA (Balb/C mice [5])","g-IFN secretion (Balb/C mice [6]; Example 7, first experiment, highest dose of DNA, delivered right before or right after PMID)","g-IFN secretion (Balb/C mice [6]; Example 7, first experiment, highest dose of DNA, given 24 hours after PMID)","g-IFN secretion (Balb/C mice [6]; Example 7, first experiment, low doses of DNA, administration 24 hours post PMID compared with other time points)","g-IFN secretion (Balb/C mice [6]; Example 7, first experiment, low doses of HBV-encoding DNA, right before, right after or 24 hours post PMID)","g-IFN response with class I-restricted peptide (CD8+ cells) (Balb/C mice [6]; Example 7, first experiment, not shown)","frequency of cells which secreted g-IFN in response to antigen (Balb/C mice [6]; Example 7, first experiment, sAg peptide library (primarily CD4+ cells), 2 weeks post prime, FIG. 16)",IFN-g ELISPOT response (Balb/C mice [6]; [8]),"optimal time point for augmenting g-IFN-secreting cells (Balb/C mice [6]; Example 7, time of administration relative to PMID)","IL-4 secretion, as measured by ELISPOT assay (Balb/C mice [7]; Example 7, first experiment (prime only), not shown)",EL-4 ELISPOTs (Balb/C mice [7]; [8])
CCCCC[C@H](O)/C=C/[C@H]1[C@H](O)CC(=O)[C@@H]1C/C=C\CCCC(=O)O [PGE2],does not have the same effect overall,,,,,,,,,,,,,,
"CC(C)Cn1cnc2c(N)nc3ccccc3c21 [imiquimod, 1-(2-methyl-propyl)-1H-imidazo[4,5-c]quinolin-4-amine]",,enhanced the responses,little effect; also recorded: did not enhance antibody responses,strong reduction in antibody levels,enhanced the responses,slightly inhibitory,augments PMID,most effective,enhances g-IFN secretion,comaparable responses,enhancement of the frequency of cells which secreted g-IFN,primarily enhanced; also recorded: augments the frequency of g-IFN-secreting cells,about a day and upto 7 days after PMID,no effect,little effect
